Data: patent publication US20240366543A1, “METHODS OF TREATING METHYLMALONIC ACIDEMIA AND PROPIONIC ACIDEMIA” (HemoShear Therapeutics, Inc., priority 2021, published 2024)

Test: Phase 2 study preliminary plasma pharmacokinetics in PA/MMA subjects
Assay type: in vivo, human
Conditions: dose range of 1 mg/kg to 30 mg/kg, once or twice daily
Procedure: Part A is the dose escalation phase to assess the initial safety and to confirm the pharmacologic activity of Compound 5 in subjects with PA and MMA. Screening for eligibility took place within 28 days of enrollment. All subjects were initially evaluated during a 4-week run-in period followed by within-subject dose escalation of 3 doses (1, 3, and 10 mg/kg QD of sodium 2,2-dimethylbutanoate); dose escalation interval of 4 weeks) to check for improvement in disease-related biomarkers.
Plasma will be analyzed by liquid chromatography with tandem mass spectrometry (LC-MS/MS) with a lower limit of quantitation of 0.100 μg/mL. Samples collected for analyses of Compound 5 (plasma/serum/whole blood)] concentration may also be used to evaluate safety or efficacy aspects related to concerns arising during or after the study.
Preliminary pharmacokinetics (PK) data from the first two subjects of Study described in Examples 7-8 was evaluated at 1 mg/kg, 3 mg/kg and 10 mg/kg of Compound 5 dosed once daily (QD).

Blood plasma concentrations versus dose: dose proportional
Compound: CCC(C)(C)C(=O)[O-].[Na+] [Compound 5A, 2,2-dimethylbutyric acid sodium salt]
